One may read the IC50 as the concentration needed to halve the response being measured. Read a high IC50 as weaker potency in that assay.

This is an account of results in patent US11479546B2, “Antimalarial hexahydropyrimidine analogues” (UCB Biopharma SRL, priority 2018, dated 2022).

One assay relates to Plasmodium falciparum 3D7. Description: P. falciparum 3D7 asexual blood stage assay, Assay Procedure Version 2 (SYBR green readout). It counts as cell-based. The settings on record: Plasmodium falciparum, 3D7, Erythrocyte, 72 h, Version 2 of the assay procedure (asterisk *); 72 h incubation in infected erythrocytes; 50,000 nM to 15 nM. Here is the method: Asexual Blood Stage Assay
The assay used to measure the effect of test compounds on a bloodstream stage of Plasmodium falciparum 3D7 strain employs SYBR green as the readout. This is a dye that binds to double stranded deoxyribonucleic acid (DNA) with a resulting increase in fluorescence, allowing detection of P. falciparum DNA in infected erythrocytes, and thereby providing a measure of parasite growth and propagation.
P. falciparum Culture Maintenance
Erythrocytes (A+blood) were prepared for both parasite culture and assay by washing 4 times with incomplete media (15.9 g RPMI 1640 (25 mM HEPES, L-glutamine), 1 g NaHCO3, 2 g glucose, 400 μL gentacin (500 mg/mL), 2 mL hypoxanthine solution (13.6 g/L in 0.1M NaOH pH 7.3) in 1 litre of media). The cells were centrifuged at 1800 g for 5 minutes, before decanting the supernatant and re-suspending in fresh incomplete media. On the final wash, the cells were re-suspended in complete media (incomplete media with 5 g/L AlbumaxII), and centrifuged at 1800 g for 3 minutes. This cell sediment was treated as 100% haematocrit.
P. falciparum 3D7 was cultured in erythrocytes at 5% haematocrit in complete media at 37° C. (1% O2, 3% CO2, balance N2). Cultures were split on a weekly basis to achieve a 1% parasitaemia in erythrocites at 5% haematocrit in fresh media. Culture media is replaced by fresh media every other day (2 times during the week).
[formula] where A=% inhibition at bottom; B=% inhibition at top; C=EC50; D=slope; x=inhibitor concentration; and y=% inhibition. […] Assay Procedure—Version 2
On day 1, test compounds were added to assay plates using Echo dispensing technology ([…] and 20 points titration). 50 nL of each compound dilution was added to 50 μL of culture (5% haematocrit, 0.5% parasitaemia) and incubated for 72 h at 37° C. (1% O2, 3% CO2, balance N2). Final concentrations of test compounds ranged from 50,000 nM to 15 nM, in […].
On day 4, 10 μL SYBR green (Invitrogen S7563 supplied as 10,000× concentrate in DMSO) pre-diluted to 3× concentrate with Lysis buffer (20 mM Tris pH 7.9, 5% EDTA, 0.16% w/v, 1.6% TX100 v/v) was added to the cultures and incubated in the dark, overnight, at room temperature.
On day 5, fluorescent signal was measured using a BioTek plate reader (excitation 485 nm, emission 528 nm). All data were processed using IDBS ActivityBase. Raw data were converted into percent inhibition through linear regression by setting the high inhibition control (mefloquine) as 100% and the no inhibition control (DMSO) as 0%. Quality control criteria for passing plates were as follows: Z′>0.5, S:B>3, % CV(no inhibition control)<15. The formula used to calculate Z′ is:
[formula] where μ denotes the mean; σ denotes the standard deviation; p denotes the positive control; and n denotes the negative control.
All EC50 curve fitting was undertaken using the following bi-phasic two site dose response using XLfit model 300 (IDBS):
[formula] where A=100 minus the top of the upper curve 1 and the bottom of lower curve; B=Hill slope; log(C)=IC50 concentration at lower site; log(D)=IC50 concentration at upper site; x=inhibitor concentration; and y=% inhibition.
Turning to `Cc1ccc(Nc2cccc([C@]3(C)CC(=O)N([C@H]4C[C@](O)(C(C)C)C4)C(=N)N3)c2Cl)cn1` [Example 134, (6S)-6-{2-Chloro-3-[(6-methyl-pyridin-3-yl)amino]phenyl}-3-(3-hydroxy-3-isopropylcyclo-butyl)-2-imino-6-methyl-hexahydropyrimidin-4-one], 3970 nM corresponded to half-maximal inhibition (IC50).
On the same count and under the same terms, to `Cn1cc2c(Nc3cccc([C@]4(C)CC(=O)N(C5CCOCC5)C(=N)N4)c3Cl)cccc2n1` [Example 77, (6S)-6-{2-Chloro-3-[(2-methyl-indazol-4-yl)amino]phenyl}-2-imino-6-methyl-3-(tetrahydro-pyran-4-yl)hexahydropyrimidin-4-one] belongs 791 nM.
With `Cc1ccc(Nc2cccc([C@]3(C)CC(=O)N([C@@H]4C[C@H]5CC[C@@H](C4)O5)C(=N)N3)c2Cl)cn1` (mixture of isomers) [Example 157, (6S)-6-{2-Chloro-3-[(6-methyl-pyridin-3-yl)amino]phenyl}-2-imino-6-methyl-3-[(1SR,5RS)-8-oxabicyclo[3.2.1]octan-3-yl]-hexahydropyrimidin-4-one], the IC50 was 3860 nM.
Still for that read-out and setting: to `C[C@@]1(c2cccc(Nc3ccc(C(F)(F)F)cc3)c2Cl)CC(=O)N([C@H]2C[C@@](C)(O)C2)C(=N)N1` [Example 174, (6S)-6-{2-Chloro-3-[4-(trifluoromethyl)anilino]-phenyl}-3-(3-hydroxy-3-methyl-cyclobutyl)-2-imino-6-methyl-hexahydropyrimidin-4-one] belongs 764 nM; to `C[C@@]1(c2cccc(Nc3ccc(C#N)cn3)c2Cl)CC(=O)N(C2CCOCC2)C(=N)N1` [Example 183, 6-{2-Chloro-3-[(4S)-2-imino-4-methyl-6-oxo-1-(tetrahydro-pyran-4-yl)hexahydropyrimidin-4-yl]anilino}pyridine-3-carbo-nitrile], 582 nM; to `Cc1ccc(Nc2cccc([C@]3(C)CC(=O)N([C@@H]4CCO[C@H](C)C4)C(=N)N3)c2Cl)cn1` (single isomer, unassigned) [Example 135], 21 nM.
`Cc1cccc(C)c1Nc1cccc([C@]2(C)CC(=O)N(C3CCOCC3)C(=N)N2)c1Cl` [Example 69, (6S)-6-[2-Chloro-3-(2,6-dimethylanilino)phenyl]-2-imino-6-methyl-3-(tetrahydro-pyran-4-yl)hexahydropyrimidin-4-one] showed an IC50 of 579 nM. This IC50 lies about 28-fold higher than the previous one.
In turn, `C[C@@]1(c2cccc(Nc3ccc(OC(F)F)nc3)c2Cl)CC(=O)N(C2CCOCC2)C(=N)N1` [Example 42, (6S)-6-(2-Chloro-3-{[6-(difluoromethoxy)pyridin-3-yl]-amino}phenyl)-2-imino-6-methyl-3-(tetrahydropyran-4-yl)hexahydropyrimidin-4-one] returned an IC50 of 269 nM.
For `C[C@@]1(c2cccc(Nc3cccc(Oc4ccccc4)c3)c2Cl)CC(=O)N(C2CCOCC2)C(=N)N1` [Example 75, (6S)-6-[2-Chloro-3-(3-phenoxy-anilino)phenyl]-2-imino-6-methyl-3-(tetrahydropyran-4-yl)hexahydropyrimidin-4-one], the IC50 is 1460 nM.
Still for that read-out and setting: to `C[C@@]1(c2cccc(Nc3cnc4ccccc4c3C#N)c2Cl)CC(=O)N(C2CCOCC2)C(=N)N1` [Example 89, 3-{2-Chloro-3-[(4S)-2-imino-4-methyl-6-oxo-1-(tetrahydro-pyran-4-yl)hexahydropyrimidin-4-yl]anilino}quinoline-4-carbonitrile] belongs 232 nM.
Regarding `C[C@@]1(c2cccc(Nc3ccccc3S(C)(=O)=O)c2Cl)CC(=O)N(C2CCOCC2)C(=N)N1` [Example 43, (6S)-6-[2-Chloro-3-(2-methyl-sulfonylanilino)phenyl]-2-imino-6-methyl-3-(tetrahydro-pyran-4-yl)hexahydropyrimidin-4-one], the IC50 came out at 63 nM.
Take `COc1cc(C#N)ccc1Nc1cccc([C@]2(C)CC(=O)N(C3CCOCC3)C(=N)N2)c1Cl` [Example 47, 4-{2-Chloro-3-[(4S)-2-imino-4-methyl-6-oxo-1-(tetrahydro-pyran-4-yl)hexahydropyrimidin-4-yl]anilino}-3-methoxy-benzonitrile]: inhibition was half-maximal at 171 nM (IC50).
`C[C@@]1(c2cccc(Nc3ccc(OC(F)F)nc3)c2Cl)CC(=O)N([C@H]2C[C@@](C)(O)C2)C(=N)N1` [Example 128, (6S)-6-(2-Chloro-3-{[6-(difluoromethoxy)pyridin-3-yl]-amino}phenyl)-3-(3-hydroxy-3-methylcyclobutyl)-2-imino-6-methylhexahydropyrimidin-4-one] returned a 50% inhibitory concentration (IC50) of 717 nM.
`C[C@@]1(c2cccc(Nc3ccc(C4CC4)nc3)c2Cl)CC(=O)N(C2CCOCC2)C(=N)N1` [Example 99, (6S)-6-{2-Chloro-3-[(6-cyclo-propylpyridin-3-yl)amino]-phenyl}-2-imino-6-methyl-3-(tetrahydropyran-4-yl)-hexahydropyrimidin-4-one] showed an IC50 of 66 nM.
`C[C@@H]1C[C@H](N2C(=N)N[C@](C)(c3cccc(Nc4cc(F)c5ccnn5c4)c3Cl)CC2=O)CCO1` (stereo in doubt) [Example 137, (6S)-6-{2-Chloro-3-[(4-fluoro-pyrazolo[1,5-a]pyridin-6-yl)-amino]phenyl}-2-imino-6-methyl-3-[(cis)-2-methyl-tetrahydropyran-4-yl]-hexahydropyrimidin-4-one] returned an IC50 of 158 nM.
Consider `C[C@@H]1C[C@H](N2C(=N)N[C@](C)(c3cccc(Nc4ccc(OC(F)F)nc4)c3Cl)CC2=O)CCO1` (stereo in doubt) [Example 138, (6S)-6-(2-Chloro-3-{[6-(difluoromethoxy)pyridin-3-yl]-amino}phenyl)-2-imino-6-methyl-3-[(cis)-2-methyl-tetrahydropyran-4-yl]-hexahydropyrimidin-4-one], for which the IC50 was determined as 19 nM.
Regarding `C[C@@]1(c2cccc(Nc3ccc(C(F)F)nc3C#N)c2Cl)CC(=O)N(C2CCOCC2)C(=N)N1` [Example 100, 3-{2-Chloro-3-[(4S)-2-imino-4-methyl-6-oxo-1-(tetrahydro-pyran-4-yl)hexahydropyrimidin-4-yl]anilino}-6-(difluoro-methyl)pyridine-2-carbonitrile], inhibition was half-maximal at 347 nM (IC50).
Consider `C[C@@]1(c2cccc(Nc3ccc(C4(C#N)CCC4)nc3)c2Cl)CC(=O)N(C2CCOCC2)C(=N)N1` [Example 103, 1-(5-{2-Chloro-3-[(4S)-2-imino-4-methyl-6-oxo-1-(tetrahydro-pyran-4-yl)hexahydropyrimidin-4-yl]anilino}pyridin-2-yl)-cyclobutanecarbonitrile], for which half-maximal inhibition (IC50) required 551 nM.
`C[C@@]1(c2cccc(Nc3ccc(C#N)cc3)c2Cl)CC(=O)N([C@H]2C[C@@](C)(O)C2)C(=N)N1` [Example 123, 4-{2-Chloro-3-[(4S)-1-(3-hydroxy-3-methylcyclobutyl)-2-imino-4-methyl-6-oxo-hexahydropyrimidin-4-yl]-anilino}benzonitrile]: the IC50 was determined as 552 nM.

The same assay, now with this note: Version 2 of the assay procedure (asterisk *); 72 h incubation in infected erythrocytes; 50,000 nM to 15 nM.
Take `Cc1ccc(Nc2cccc([C@]3(C)CC(=O)N(C4CCOC(C)(C)C4)C(=N)N3)c2Cl)cn1` (single isomer, unassigned) [Example 146, (6S)-6-{2-Chloro-3-[(6-methyl-pyridin-3-yl)amino]phenyl}-3-[(4S*)-2,2-dimethyltetrahydro-pyran-4-yl]-2-imino-6-methyl-hexahydropyrimidin-4-one]: half-maximal inhibition (IC50) required 425 nM. That is a sub-micromolar value.
